Results reported in PubChem BioAssay (NCI).
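In this assay, cells in 96-well plates receive the compound at five concentrations for 48 hours. Endpoints are linearly interpolated between the surrounding concentrations. TGI is the concentration that stops growth completely.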

What was measured:
Assay in all cases: inhibition of tumour cell growth, NCI panel, 48 h
NCI-H23 lung = test system: NCI-H23 lung
OVCAR-5 ovarian = test system: OVCAR-5 ovarian
SN12C renal = test system: SN12C renal
A549 NSCLC = test system: A549 NSCLC
HL-60(TB) leukemia = test system: HL-60(TB) leukemia
DU-145 prostate = test system: DU-145 prostate
EKVX NSCLC = test system: EKVX NSCLC
CCRF-CEM leukemia = test system: CCRF-CEM leukemia
MCF7 breast = test system: MCF7 breast
LOX IMVI melanoma = test system: LOX IMVI melanoma
SW-620 colon = test system: SW-620 colon
M14 melanoma = test system: M14 melanoma
PC-3 prostate = test system: PC-3 prostate
U251 CNS = test system: U251 CNS
MDA-MB-231 breast = test system: MDA-MB-231 breast
MOLT-4 leukemia = test system: MOLT-4 leukemia
HOP-62 NSCLC = test system: HOP-62 NSCLC
MDA-MB-435 = test system: MDA-MB-435
NCI-H522 lung = test system: NCI-H522 lung
SK-MEL-5 melanoma = test system: SK-MEL-5 melanoma
TK-10 renal = test system: TK-10 renal
A498 renal = test system: A498 renal
IGROV1 ovarian = test system: IGROV1 ovarian
NCI/ADR-RES ovarian = test system: NCI/ADR-RES ovarian
SF-295 CNS = test system: SF-295 CNS
HCC-2998 colon = test system: HCC-2998 colon
SR leukemia = test system: SR leukemia
HCT-15 colon = test system: HCT-15 colon
SF-268 CNS = test system: SF-268 CNS
SNB-19 CNS = test system: SNB-19 CNS
MDA-N = test system: MDA-N
T-47D breast = test system: T-47D breast
HS 578T breast = test system: HS 578T breast
MALME-3M melanoma = test system: MALME-3M melanoma
OVCAR-3 ovarian = test system: OVCAR-3 ovarian
SNB-75 CNS = test system: SNB-75 CNS
BT-549 breast = test system: BT-549 breast
COLO 205 colon = test system: COLO 205 colon
CAKI-1 renal = test system: CAKI-1 renal
NCI-H460 lung = test system: NCI-H460 lung
KM12 colon = test system: KM12 colon
NCI-H226 lung = test system: NCI-H226 lung
HT29 colon = test system: HT29 colon
SK-MEL-28 melanoma = test system: SK-MEL-28 melanoma
SF-539 CNS = test system: SF-539 CNS
HCT-116 colon = test system: HCT-116 colon
RPMI-8226 leukemia = test system: RPMI-8226 leukemia
UACC-62 melanoma = test system: UACC-62 melanoma
UO-31 renal = test system: UO-31 renal
SK-OV-3 ovarian = test system: SK-OV-3 ovarian
K-562 leukemia = test system: K-562 leukemia
786-0 renal = test system: 786-0 renal
OVCAR-4 ovarian = test system: OVCAR-4 ovarian
ACHN renal = test system: ACHN renal
OVCAR-8 ovarian = test system: OVCAR-8 ovarian
UACC-257 melanoma = test system: UACC-257 melanoma
SK-MEL-2 melanoma = test system: SK-MEL-2 melanoma
RXF 393 renal = test system: RXF 393 renal

O=C(c1ccccc1Br)C(F)(F)F
TGI (NCI-H23 lung): > 100 µM
TGI (OVCAR-5 ovarian): > 100 µM
TGI (SN12C renal): > 100 µM
TGI (A549 NSCLC): > 100 µM
TGI (HL-60(TB) leukemia): > 100 µM
TGI (DU-145 prostate): > 100 µM
TGI (EKVX NSCLC): > 100 µM
TGI (CCRF-CEM leukemia): > 100 µM
TGI (MCF7 breast): > 100 µM
TGI (LOX IMVI melanoma): > 100 µM
TGI (SW-620 colon): > 100 µM
TGI (M14 melanoma): > 100 µM
TGI (PC-3 prostate): > 100 µM
TGI (U251 CNS): > 100 µM
TGI (MDA-MB-231 breast): > 100 µM
TGI (MOLT-4 leukemia): > 100 µM
TGI (HOP-62 NSCLC): > 100 µM
TGI (MDA-MB-435): > 100 µM
TGI (NCI-H522 lung): > 100 µM
TGI (SK-MEL-5 melanoma): > 100 µM
TGI (TK-10 renal): > 100 µM
TGI (A498 renal): > 100 µM
TGI (IGROV1 ovarian): > 100 µM
TGI (NCI/ADR-RES ovarian): > 100 µM
TGI (SF-295 CNS): > 100 µM
TGI (HCC-2998 colon): > 100 µM
TGI (SR leukemia): > 100 µM
TGI (HCT-15 colon): > 100 µM
TGI (SF-268 CNS): > 100 µM
TGI (SNB-19 CNS): > 100 µM
TGI (MDA-N): > 100 µM
TGI (T-47D breast): > 100 µM
TGI (HS 578T breast): > 100 µM
TGI (MALME-3M melanoma): > 100 µM
TGI (OVCAR-3 ovarian): > 100 µM
TGI (SNB-75 CNS): > 100 µM
TGI (BT-549 breast): > 100 µM
TGI (COLO 205 colon): > 100 µM
TGI (CAKI-1 renal): > 100 µM
TGI (NCI-H460 lung): > 100 µM
TGI (KM12 colon): > 100 µM
TGI (NCI-H226 lung): > 100 µM
TGI (HT29 colon): > 100 µM
TGI (SK-MEL-28 melanoma): > 100 µM
TGI (SF-539 CNS): > 100 µM
TGI (HCT-116 colon): > 100 µM
TGI (RPMI-8226 leukemia): > 100 µM
TGI (UACC-62 melanoma): > 100 µM
TGI (UO-31 renal): > 100 µM
TGI (SK-OV-3 ovarian): > 100 µM
TGI (K-562 leukemia): > 100 µM
TGI (786-0 renal): > 100 µM
TGI (OVCAR-4 ovarian): > 100 µM
TGI (ACHN renal): > 100 µM
TGI (OVCAR-8 ovarian): > 100 µM

CN(C)C(n1cc2c(c1)-c1ccc(Cl)cc1C(c1ccccc1F)=NC2)n1cc2c(c1)-c1ccc(Cl)cc1C(c1ccccc1F)=NC2
TGI (NCI-H23 lung): 24.4 µM
TGI (OVCAR-5 ovarian): > 100 µM
TGI (SN12C renal): > 100 µM
TGI (A549 NSCLC): > 100 µM
TGI (HL-60(TB) leukemia): > 100 µM
TGI (DU-145 prostate): > 100 µM
TGI (EKVX NSCLC): > 100 µM
TGI (UACC-257 melanoma): > 100 µM
TGI (CCRF-CEM leukemia): > 100 µM
TGI (MCF7 breast): > 100 µM
TGI (LOX IMVI melanoma): 47.9 µM
TGI (SW-620 colon): > 100 µM
TGI (M14 melanoma): > 100 µM
TGI (PC-3 prostate): > 100 µM
TGI (U251 CNS): > 100 µM
TGI (MDA-MB-231 breast): > 100 µM
TGI (MOLT-4 leukemia): > 100 µM
TGI (HOP-62 NSCLC): > 100 µM
TGI (MDA-MB-435): > 100 µM
TGI (NCI-H522 lung): > 100 µM
TGI (SK-MEL-5 melanoma): > 100 µM
TGI (A498 renal): > 100 µM
TGI (IGROV1 ovarian): > 100 µM
TGI (NCI/ADR-RES ovarian): > 100 µM
TGI (SF-295 CNS): > 100 µM
TGI (HCC-2998 colon): > 100 µM
TGI (SR leukemia): > 100 µM
TGI (HCT-15 colon): > 100 µM
TGI (SF-268 CNS): > 100 µM
TGI (SNB-19 CNS): > 100 µM
TGI (MDA-N): 52.7 µM
TGI (T-47D breast): > 100 µM
TGI (HS 578T breast): > 100 µM
TGI (MALME-3M melanoma): > 100 µM
TGI (OVCAR-3 ovarian): > 100 µM
TGI (SNB-75 CNS): 77.2 µM
TGI (COLO 205 colon): > 100 µM
TGI (CAKI-1 renal): > 100 µM
TGI (NCI-H460 lung): > 100 µM
TGI (NCI-H226 lung): > 100 µM
TGI (HT29 colon): > 100 µM
TGI (SK-MEL-28 melanoma): > 100 µM
TGI (SF-539 CNS): > 100 µM
TGI (HCT-116 colon): > 100 µM
TGI (RPMI-8226 leukemia): > 100 µM
TGI (UACC-62 melanoma): > 100 µM
TGI (UO-31 renal): > 100 µM
TGI (SK-MEL-2 melanoma): > 100 µM
TGI (SK-OV-3 ovarian): > 100 µM
TGI (K-562 leukemia): > 100 µM
TGI (786-0 renal): > 100 µM
TGI (OVCAR-4 ovarian): > 100 µM
TGI (RXF 393 renal): 66.6 µM
TGI (ACHN renal): > 100 µM
TGI (OVCAR-8 ovarian): > 100 µM
